Assay results: patent US9034848B2, “Phenyl carbamate compounds for use in preventing or treating stroke” (Bio-Pharm Solutions Co., Ltd., priority 2011, dated 2015)

Experiments:
Assay type in all cases: in vivo
[1] = system: SD rats; assay: Transient middle cerebral artery occlusion (tMCAO) model, TTC-stained infarct area; conditions: 2 hr occlusion, 24 hr reperfusion; for infraction areas compared with control (neuro-therapeutic): 60 mg/kg i.p. 15 minutes after occlusion; for infraction areas compared with control (neuro-prevention): 60 mg/kg i.p. 15 minutes before occlusion
Experimental: 1.1. Neuro-Prevention Study of Transient MCAO (tMCAO) Model
Male, SD rats weighing 290-300 g were purchased from Nara Bio Tech. (Pyoung-tek, Korea) Animals were maintained with laboratory animal food and water ad libitum in an animal facility with a 12 h light/dark cycle at a controlled temperature (23±2° C.) until used. All animal experiments were carried out in accordance with the Korean Academy of Medical Sciences Guide for Care and Use of Laboratory Animals.
The rats were anesthetized with isoflurane (Hana-phram., Korea) and anesthesia machine was set to 1.0 L/min N2O (Surgi-Vet, USA). Isoflurane and N2O gas ratio was 3:3 for induction anesthesia, and lower to 2:1 (isoflurane:N2O) to maintain anesthesia. Body temperature was monitored continuously by a rectal thermo meter probe and maintained at 37±0.5° C. by placing the animals on a heating pad (Jung-do B&P, Korea). The MCA (middle cerebral artery) occlusion was induced by the procedure of Longa et al. (1989) with minor modifications. Briefly, surgical nylon suture thread (4-0, Diameter: 0.39 mm, Coating length: 0.56 mm, Doccol suture, USA) with a round tip was advanced from the external carotid artery (ECA) into the lumen of the internal carotid artery (ICA) to occlude the origin of the MCA. The wound was closed, and the animals were allowed to home cage for recover.
Priority, the infraction areas when the compound of Example 1 was treated at various time points were measured for peak time when is the best efficacy time (see FIG. 1). And then, rats received 60 mg/kg dose of each compound of Examples 1, 65 and 67, intraperitoneally (i.p.) at 15 minutes before MCA occlusion (see FIG. 2, animal numbers of each compound of Examples 1 (n=8), 65 (n=5) and 67 (n=6)). All compounds were dissolved in 30% polyethylene glycol (Compound of Example 1) or 20% (w/v) Tween 80 (Compounds of Examples 65 and 67) once in volume of 4 ul/g bw. Control group (n=33) was identical to those in the MCA occlusion rats except for injection of vehicle (4 ul/g bw of 30% (w/v) polyethylene glycol or 20% (w/v) Tween 80, intraperitoneally (i.p.)). Two hours after MCA occlusion, reperfusion was accomplished by pulling the suture thread back to the bifurcation until the tip cleared the ICA.
The experimentation was identical performed as described in Experimental Example 1.1, except that each compound examples of 1, 65 and 67 was administered at 15 minutes after MCA occlusion (FIG. 3, animal numbers of each compound of Examples 1 (n=7), 65 (n=6) and 67 (n=5)), to test the therapeutic effect of the compounds. Control group (n=33) was identical to those in the MCA occlusion rats except for injection of vehicle (4 ul/g bw of 30% polyethylene glycol or 20% Tween 80, intraperitoneally (i.p.)).
After 24 hours of reperfusion, rats were anesthetized with isoflurane (Hana-phram., Korea). The brain was then quickly removed and cut into 2-mm thick coronal block slices in brain matrix. The slices were immersed in a 2% (w/v) solution of 2,3,5-triphenyltetrazolium chloride (TTC) in normal saline at 37° C. for 10 min and then fixed in 10% (v/v) formalin solution at room temperature for overnight. The TTC stained brain slices were photographed using a digital camera (5000D, Nikon, Japan). The size of infarct was calculated with an image analysis system (Image-Pro Plus 4.0, Media Cybernetics, USA) and measurement of infarct area were expressed as the percentage (% control) of infarct area in reference to the compared with ipsilateral hemisphere of control group (see FIGS. 2 and 3).
Statistical analysis results are presented as the mean±S.E.M. and measures analysis of variance was used for comparison of the results of hemispheric infarct area, obtained from 5˜33 rats in each group. Data were analyzed by either one-way analysis of variance (ANOVA) followed by Tukey's test for multiple comparisons. p values less than 0.05 were considered to be statistically significant (see FIGS. 1 and 4).

[2] = system: SD rats; assay: Permanent middle cerebral artery occlusion (pMCAO) model, TTC-stained infarct area; conditions: 60 mg/kg i.p. b.i.d.; for infraction areas compared with control (neuro-therapeutic): 1st inj. 0.25 hr after occlusion, 8 hr interval, occlusion 1, 3, 7 days
[3] = system: mice; assay: MES test (anti-excitotoxicity activity); conditions: Mus musculus, po, 4 mice, read-out: MES test(po) Protection %; for responders at 100 mg/kg: injection amount 100 mg/kg

With `C[C@H](OC(N)=O)[C@@H](O)c1ccccc1I` [Compound 65, 1-(2-iodophenyl)-(S)-1-hydroxypropyl-(S)-2-carbamate] the “infraction areas compared with control (neuro-therapeutic)” value [1] was “significantly reduced”, the “infraction areas compared with control (neuro-prevention)” value [1] was “significantly reduced” and the “infraction areas compared with control (neuro-therapeutic)” value [2] was “neuro-therapeutic effects”. For the same molecule, the responders at 50 mg/kg ([3]; injection amount 50 mg/kg) was 100%.

For `CC[C@H](OC(N)=O)[C@@H](O)c1ccccc1I` [Compound 67, 1-(2-iodophenyl)-(S)-1-hydroxybutyl-(S)-2-carbamate], the “infraction areas compared with control (neuro-therapeutic)” value [1] was “significantly reduced”, the “infraction areas compared with control (neuro-prevention)” value [1] was “significantly reduced” and the “infraction areas compared with control (neuro-therapeutic)” value [2] was “neuro-therapeutic effects”. For the same molecule, the responders at 100 mg/kg [3] was 100%.

Molecule `CCCC[C@H](OC(N)=O)[C@@H](O)c1ccc(Cl)cc1Cl` [Compound 43, 1-(2,4-dichlorophenyl)-(S)-1-hydroxyhexyl-(S)-2-carbamate] has a responders at 100 mg/kg [3] of 25%.

With `CCCC[C@H](OC(N)=O)[C@@H](O)c1ccccc1Cl` [Compound 12, 1-(2-chlorophenyl)-(S)-1-hydroxyhexyl-(S)-2-carbamate] the responders at 100 mg/kg [3] was 75%.

With `CCCC[C@H](OC(N)=O)[C@@H](O)c1c(Cl)cccc1Cl` [Compound 44, 1-(2,6-dichlorophenyl)-(S)-1-hydroxyhexyl-(S)-2-carbamate] the responders at 100 mg/kg [3] was 75%.

`CCCC[C@@H](OC(N)=O)[C@H](O)c1ccccc1Cl` [Compound 13, 1-(2-chlorophenyl)-(R)-1-hydroxyhexyl-(R)-2-carbamate] was tested, and the responders at 200 mg/kg ([3]; injection amount 200 mg/kg) was 75%.

In the case of `C[C@H](OC(N)=O)[C@@H](O)c1ccccc1Cl` [Compound 1, 1-(2-chlorophenyl)-(S)-1-hydroxypropyl-(S)-2-carbamate], the “infraction areas compared with control (neuro-therapeutic)” value [1] is reported as “significantly reduced”, the “infraction areas compared with control (neuro-prevention)” value [1] is reported as “significantly reduced” and the “infraction areas compared with control (neuro-therapeutic)” value [2] is reported as “significantly reduced”. For the same molecule, the “neuro-therapeutic effect, TTC-stained infarction area” value ([2]; 1st inj. 1 hr after occlusion, occlusion for 3 days) was “neuro-therapeutic effect”.
